Experimental data: EP0247900A1, “Topical methotrexate preparation for the treatment of hyperproliferative epithelial disease” (THE REGENTS OF THE UNIVERSITY OF CALIFORNIA, priority 1986, dated 1987)

Tests used:
[1] = tested on: psoriatic epidermal DNA synthesis; assay: Intradermal administration of MTX; assay type: in vivo; details: administered intradermally, compared with systemic MTX
From the text: Thus, it has been discovered that MTX or its analogs can be administered topically in an effective manner to skin afflicted with a hyperproliferative epithelial disease avoiding, therefore, the serious side effects associated with systemic MTX administration.

[2] = tested on: epidermal DNA synthesis; assay: In vivo epidermal labeling index (DNA synthesis) in the mini-pig model; set-up: species or system Mini-pigs; details: for Epidermal Labeling Index: applied daily for 7 days, mini-pig dorsal skin
Protocol: The formulations of Example III were tested for effect on in vivo DNA synthesis in the mini-pig model. Mini-pig skin closely resembles human skin and the effect of a drug on epidermal cell proliferation is a recognized test for the effectiveness of therapeutic protocols for hyperproliferative skin disease.
Mini-pigs were obtained from Charles River Laboratories, Inc. (Wilmington, MA). Drug preparations were applied to small areas of dorsal skin (ca 1 inch square) according to the selected application schedules. Six hours following the last drug application, tritiated thymidine was injected into the drug treatment sites for autoradiographic assessment of epidermal proliferation as measured by epidermal labeling index. Weinstein & and Van Scott, (1965) J. Invest. Derm. 44:413
A vehicle containing various concentrations of MTX was applied daily for 7 days. Tritiated deoxyuridine was injected into the treatment sites on day 7, as well as in untreated control area. DNA synthesis was measured as described in Example II.
Formulations were applied daily for 7 days. […] Autoradiographs were scored at 4 wk.

[3] = tested on: epidermal DNA synthesis; assay: In vivo epidermal DNA synthesis (tritiated deoxyuridine incorporation) after topical MTX in hairless mice; set-up: species or system HRS/J albino hairless mice; details: for suppression of epidermal DNA synthesis in treated back skin: compared to Vehicle N treated control
From the text: Deoxyuridine (6-^3H) (25 Ci/mmol) was obtained from New England Nuclear. Other materials were obtained as described in Example I.
(§1) HRS/J albino hairless mice, age 2-3 months, were used for these experiments. For induction of the […] fatty acid deficiency, 3-week-old animals were fed an essential fatty acid deficient diet (Teklad) for 60 days.
(§2) Six to ten mice were used for each treatment group. Tritiated deoxyuridine was utilized as a precursor for assaying the effects of methotrexate on the de novo pathway for epidermal DNA synthesis. The incorporation of tritiated deoxyuridine into DNA depends on the normal functioning of dihydrofolate reductase which is blocked by methotrexate. At selected time points after single or repeated topical MTX applications, mice were injected IP with tritiated deoxyuridine (50-100 uCi) for measurement of epidermal DNA synthesis in treated backskin to determine the local effect of MTX. DNA synthesis was simultaneously measured in untreated abdominal skin of Vehicle N and MTX-treated animals to determine systemic effects of MTX at a distant site. One hour after administration of isotope, animals were sacrificed by cervical dislocation, and treated backskin and untreated abdominal skin was obtained. Epidermis was removed after incubating the skin specimens for 1 hr at 37°C in 2 M sodium bromide. DNA was extracted and assayed using the technique described by Halprin et al (1979) J Invest Derm 73:359-363. Results of epidermal DNA synthesis were calculated as counts/minute/ug of DNA. The effects of MTX treatment on DNA synthesis of the back and abdomen were expressed as percentage of the DNA synthesis of Vehicle N treated back skin and untreated abdomin in control animals.

[4] = In vitro percutaneous penetration of MTX in glass diffusion cells
Protocol: Methotrexate was obtained from Lederle Laboratories, Pearl River, NY. Methotrexate (3',5',7-^3H)sodium (250 mCi/mmol) was obtained from Amersham and prior to use was purified by chromatography on thin-layer cellulose plates in 0.006 M potassium phosphate buffer, pH 6.0. Vehicle N was obtained from the Neutrogena Corporation. Los Angeles, CA.
The percutaneous penetration of MTX was measured in glass diffusion cells as previously described. McCullough et al (1976) J Invest Derm 66:103-107. Excised human skin obtained from abdominoplasty was used for these studies. First, 0.5 ml containing 10 µCi methotrexate-^3H and cold methotrexate to give a final concentration of 2% in various vehicles was applied to the epidermal surface (0.2 ml/cm^2). A total of […] methotrexate was applied to each diffusion cell. The dermal reservoir contained phosphate buffered saline. Three diffusion cells were run for each vehicle. Diffusion cells were incubated with constant stirring at 28°C. Methotrexate penetration was followed at various time points up to 48 hr by liquid scintillation counting. The test solution was removed after the 48 hr incubation period, and the epidermal surface was rinsed three times with vehicle in which the drug being tested was dissolved. […] The epidermis was separated by heating the skin for 1 min on a hot plate at 60°C. MTX was extracted from the epidermis and dermis utilizing the techniques described by Werkheiser et al (1962) J Pharmacol Exp Ther 137:162-166, which specifically disassociates MTX from cellular bound proteins. The stratum corneum was removed by repeated stripping with cellophane tape until the skin glistened.
In vitro percutaneous penetration studies were carried out according to the methods of Example I with formulations of a topical gel containing about 3% Azone and various concentrations of MTX.
Employing the methods described in Example I, various vehicles containing 2% by weight of tritiated MTX were tested in vitro on human skin.
Additional studies with the mini-pig model, as described in Example IV, were conducted to test various carriers with different concentrations of MTX and Azone. Formulations were applied daily for 7 days. Three sites per treatment area were injected with ^3H-UdR. Autoradiographs were scored at 4 wk. Techniques as described in Examples I and II were employed to measure percutaneous penetration and DNA synthesis.
Various vehicle formulations were evaluated in vitro at various MTX concentrations for penetration of MTX into the epidermis. Penetration was evaluated as described in Example I. Unless otherwise noted, all vehicles were a gel formulation that contained 3% Azone.

[5] = tested on: psoriasis; details: 0.1% and 0.5% MTX in vehicle with 2.5% C-10-methylsulfoxide, six patients, daily for nine days; cited from earlier work
[6] = prior-art topical MTX preparations, in vitro and in vivo; cited from earlier work
[7] = tested on: hairless mouse skin; assay: Skin changes after topical MTX in normal and essential fatty acid deficient hairless mice; assay type: in vivo, HRS/J albino hairless mice; details: three daily applications of 2% MTX in Vehicle N, untreated abdominal skin not similarly affected
Protocol: as §1
as §2, with “Topical MTX preparations at various concentrations or vehicle control in the amount of 0.05 ml were applied to the backskin area of 1.5 cm by 3 cm daily for 1 or 3 days. Six” for “Six”, “One hour after administration of isotope, animals were sacrificed by cervical dislocation, and treated backskin and untreated abdominal skin was obtained. Epidermis was removed after incubating the skin specimens for 1 hr at 37°C in 2 M sodium bromide. DNA was extracted and assayed using the technique described by Halprin et al (1979) J Invest Derm 73:359-363.” left out, “animals. […]” for “animals.”

[8] = 0.1% Methotrexate in topical gel containing about 3% Azone
[9] = 0.5% Methotrexate in topical gel containing about 3% Azone
[10] = 1.0% Methotrexate in topical gel containing about 3% Azone

**Q.** With `CN(Cc1cnc2nc(N)nc(N)c2n1)c1ccc(C(=O)N[C@@H](CCC(=O)O)C(=O)O)cc1` [MTX, Methotrexate] as the compound, how does the “biochemical effects and biological actions” value [1] read?
**A.** The value was “same biochemical effects (inhibition of psoriatic epidermal DNA synthesis) and biological actions (mitotic inhibition and damaged cell production) as systemic MTX”.

**Q.** And the “Epidermal Labeling Index” value ([2]; 0.5% Methotrexate in gel with about 3% Azone)?
**A.** Its value is 0.0 ± 0.0%.

**Q.** What about the “labeling intensity (rate of DNA synthesis)” value ([2]; 0.5% and 1.0% MTX in Azone gel, daily for 7 days, compared to the vehicle control) of the same compound?
**A.** Its value is “slight decrease in labeling intensity”.

**Q.** And the “Epidermal Labeling Index” value ([2]; 1.0% Methotrexate in gel with about 3% Azone)?
**A.** Its value is 0.8 ± 1.4%.

**Q.** And the “effect on DNA synthesis in back skin and untreated abdominal skin” value ([3]; four daily applications of MTX in Vehicle N)?
**A.** Its value is “total suppression of DNA synthesis”.

**Q.** What about the “effect on DNA synthesis” value ([3]; single application of MTX in Vehicle N) of the same compound?
**A.** The value was “ineffective”.

**Q.** What about the “effect on DNA synthesis in treated skin” value ([3]; three daily applications of 1% MTX in Vehicle N, 6 hr after the last treatment) of the same compound?
**A.** The value was “produced inhibition of DNA synthesis”.

**Q.** And the “systemic effect on DNA synthesis in untreated abdominal skin” value ([3]; three daily applications of 2% MTX in Vehicle N, at 54 hr (6 hr after the last treatment))?
**A.** The value was “no significant (p < 0.001) systemic methotrexate effect”.

**Q.** And the “suppression of epidermal DNA synthesis in treated back skin” value ([3]; three daily applications of 2% MTX in Vehicle N, at 54 hr)?
**A.** Its value is 50%.

**Q.** And the “local and systemic effect on DNA synthesis” value ([3]; three daily applications of 2% MTX in Vehicle N, at 72 hr, 24 hr after the last treatment)?
**A.** The value was “both local and systemic effects were obtained”.

**Q.** What about the “suppression of epidermal DNA synthesis in treated back skin” value ([3]; three daily applications of 2% MTX in Vehicle N, at 72 hr) of the same compound?
**A.** Its value is 75%.

**Q.** What about the “effect on DNA synthesis” value ([3]; three daily applications of MTX in Vehicle N at concentrations lower than 1%) of the same compound?
**A.** Its value is “no local or systemic effect”.

**Q.** What about the “effect on epidermal DNA synthesis” value ([3]; topical MTX (0.5%) in N-decylmethylsulfoxide) of the same compound?
**A.** The value was “no effect on epidermal DNA synthesis”.

**Q.** And the “Cumulative Penetration 48 hr” value [4, 8]?
**A.** Its value is 0.6 ± 0.2 µg.

**Q.** What about the “Epidermal Content” value [4, 8] of the same compound?
**A.** The value was 3.9 ± 0.3 µg.

**Q.** What about the “Cumulative Penetration 48 hr” value [4, 9] of the same compound?
**A.** Its value is 7.5 ± 1.4 µg.

**Q.** And the “Epidermal Content” value [4, 9]?
**A.** The value was 24.1 ± 8.1 µg.

**Q.** And the “Cumulative Penetration 48 hr” value [4, 10]?
**A.** Its value is 18.7 ± 6.1 µg.

**Q.** What about the “Epidermal Content” value [4, 10] of the same compound?
**A.** The value was 36.0 ± 11.7 µg.

**Q.** What about the clinical improvement [5] of the same compound?
**A.** Its clinical improvement is “no significant improvement in any of the patients”.

**Q.** What about the “percutaneous penetration of human skin” value [6] of the same compound?
**A.** Its value is “negligible percutaneous penetration”.

**Q.** And the “effect on epidermis of treated skin” value [7]?
**A.** Its value is “marked epidermal atrophy”.
